According to patent US6538015B1, “Anti-HIV pyrazole derivatives” (Hoffmann-La Roche Inc., priority 2001, dated 2003):
Where two headings read alike, the source gives them in different places.

Legend:
HIV-1 RT = HIV-1 RT (Human immunodeficiency virus type 1 group M subtype B, UniProt P04585); assay: HIV-1 Reverse Transcriptase Assay: Inhibitor IC50 Determination; type: biochemical
Method: HIV-1 Reverse Transcriptase Assay: Inhibitor IC50 Determination
HIV-1 RT assay was carried out in 96-well Millipore filtermat NOB50 plates using purified recombinant enzyme and a poly(rA)/oligo(dT)16 template-primer in a total volume of 50 μL. The assay constituents were 50 mM Tris/HCl, 50 mM NaCl, 1 mM EDTA, 6 mM MgC2, 5 μM dTTP, 0.1 μCi [^3H] dTTP, 5 μg/ml poly (rA) pre annealed to 2.5 μg/ml oligo (dT)16 and a range of inhibitor concentrations in a final concentration of 10% DMSO. Reactions were initiated by adding 5 nM HIV-1 RT and after incubation at 37° C. for 30 min, they were stopped by the addition of 50 μl ice cold 20% TCA and allowed to precipitate at 4° C. for 30 min. The precipitates were collected by applying vacuum to the plate and sequentially washing with 2×200 μl of 10% TCA and 2×200 μl 70% ethanol. Finally the plates were dried and radioactivity counted in a Wallac Microbeta 1450 after the addition of 15 VI scintillation fluid per well. IC50's were calculated by plotting % inhibition versus log10 inhibitor concentrations.

HXB2-strain of HIV = assay: Antiviral assay: protection of HIV-infected MT4 cells from cell death (MTT); type: cell-based; settings: Human immunodeficiency virus 1, 120 h; MT4 cells infected with HXB2-strain of HIV, 5 d, MTT cell viability
Method: Anti-HIV antiviral activity was assessed using an adaptation of the method of Pauwels et al. {Pauwels et al., 1988, J Virol Methods 20:309-321}. The method is based on the ability of compounds to protect HIV-infected T lymphoblastoid cells (MT4 cells) from cell-death mediated by the infection. The endpoint of the assay was calculated as the concentration of compound at which the cell viability of the culture was preserved by 50% (‘50% inhibitory concentration’, IC50). The cell viability of a culture was determined by the uptake of soluble, yellow 3-[4,5-dimethylthiazol-2-yl]-2,5-diphenyltetrazolium bromide (MTT) and its reduction to a purple insoluble formazan salt. After solubilization, spectrophotometric methods were employed to measure the amount of formazan product.
MT4 cells were prepared to be in logarithmic-phase growth and a total of 2×10^6 cells infected with the HXB2-strain of HIV at a multiplicity of 0.0001 infectious units of virus per cell in a total volume of between 200-500 microliters. The cells were incubated with virus for one h at 37° C. before removal of virus. The cells are then washed in 0.01 M phosphate buffered saline, pH 7.2 before being resuspensed in culture medium for incubation in culture with serial dilutions of test compound. The culture medium used was RPMI 1640 without phenol red, supplemented with penicillin, streptomycin, L-glutamine and 10% fetal calf serum (GM10).
Test compounds were prepared as 2 mM solutions in dimethyl sulphoxide (DMSO). Four replicate, serial 2-fold dilutions in GM10 were then prepared and 50 microliters amounts placed in 96-well plates over a final nanomolar concentration range of 625-1.22. Fifty microliters GM10 and 3.5×10^4 infected cells were then added to each well. Control cultures containing no cells (blank), uninfected cells (100% viability; 4 replicates) and infected cells without compound (total virus-mediated cell death; 4 replicates) were also prepared. The cultures were then incubated at 37° C. in a humidified atmosphere of 5% CO2 in air for 5 d.
A fresh solution of 5 mg/mL MTT was prepared in 0.01 M phosphate buffered saline, pH 7.2 and 20 microliters added to each culture. The cultures were further incubated as before for 2 h. They were then mixed by pipetting up and down and 170 microliters of Triton X-100 in acidified isopropanol (10% v/v Triton X-100 in 1:250 mixture of concentrated HCl in isopropanol). When the formazan deposit was fully solubilized by further mixing, the absorbance (OD) of the cultures was measured at 540 nm and 690 nm wavelength (690 nm readings were used as blanks for artefacts between wells). The percent protection for each treated culture can be calculated from the equation: [formula]

[1] = purified recombinant enzyme, poly(rA)/oligo(dT)16 template-primer, 37° C. 30 min, read-out: RT IC50/nM

Structure (SMILES)	IC50 (HIV-1 RT; [1]) [nM]	IC50 (HXB2-strain of HIV) [nM]	IC50 (HIV-1 RT) [nM]
CC(C)n1nc(CO)c(Cc2ccncc2)c1Sc1cc(Cl)cc(Cl)c1	62	1.3	
CC(C)n1nc(COC(N)=O)c(Cc2ccncc2)c1Sc1cc(Cl)cc(Cl)c1		1	32
CC(C)n1nc(CN)c(Cc2ccncc2)c1Sc1cc(Cl)cc(Cl)c1	714	7	
CC(C)n1nc(CNC(N)=O)c(Cc2ccncc2)c1Sc1cc(Cl)cc(Cl)c1	44	1	
CC(C)n1nc(CNS(C)(=O)=O)c(Cc2ccncc2)c1Sc1cc(Cl)cc(Cl)c1	7920		
COC(=O)NCc1nn(C(C)C)c(Sc2cc(Cl)cc(Cl)c2)c1Cc1ccncc1	525		
CC(C)n1nc(COC(N)=O)c(COCc2ccncc2)c1Sc1cc(Cl)cc(Cl)c1	99	13	
CCn1nc(CO)c(Cc2ccncc2)c1Sc1cc(Cl)cc(Cl)c1	183	30	
CC(C)n1nc(CO)c(Cc2cccs2)c1Sc1cc(Cl)cc(Cl)c1	434	93	
CC(C)n1nc(CO)c(Cc2ccncc2)c1Sc1cc(F)cc(F)c1	206	6	
CC(C)n1nc(COC(N)=O)c(Cc2cccs2)c1Sc1cc(Cl)cc(Cl)c1	211	30	
CC(C)n1nc(COC(N)=O)c(Cc2ccncc2)c1Sc1cc(Cl)cc(Br)c1	31	3	
Cc1ncc(Br)c(Cc2c(CO)nn(C(C)C)c2Sc2cc(Cl)cc(Cl)c2)n1	518		
COc1cc(Cc2c(CO)nn(C(C)C)c2Sc2cc(Cl)cc(Cl)c2)ccn1	51	38	
CC(C)n1nc(CO)c(Cc2ccc(F)c(F)c2)c1Sc1cc(Cl)cc(Cl)c1	123		
CCc1c(COC(N)=O)nn(C(C)C)c1Sc1cc(Cl)cc(Cl)c1	61		
CC(C)n1nc(COC(N)=O)c(CO)c1Sc1cc(Cl)cc(Cl)c1	6300		
CC(C)n1nc(CO)c(COCc2cccc(C#N)c2)c1Sc1cc(Cl)cc(Cl)c1	250		
